From patent US9120994B2, “Terpene alcohols for use in fragrance compositions and perfumed products” (Givaudan S.A., priority 2011, dated 2015)

Assay: GC-odor threshold concentration (gas chromatograph with sniff port, panel of trained evaluators)
Settings: for Odor threshold concentration (relative): GC sniff port, panel of trained evaluators, identical conditions, relative values (Ic = 1)
Description: Definition: The odour threshold concentration is defined as the lowest concentration of the vapour of an odourant material in the air which can be detected by smell and can be measured by standard methods known in the art. According to standard procedures known to the person skilled in the art, threshold concentrations for volatile perfumery compounds are determined on a gas chromatograph equipped with a sniff port by a panel of trained evaluators. The lowest concentration smelled by each panelist is recorded as the individual threshold concentration expressed in ng (absolute amount of compound delivered at the sniff port).

Compound	Odor threshold concentration (relative)	odor threshold concentration, times lower than citronellol (compared with citronellol)	odor threshold concentration, times lower than geraniol (compared with geraniol)	odor threshold concentration, times lower than compound Ib (compared with [(1S*,2R*)-1-methyl-2-[(S*)-5-methylhex-4-en-2-yl]cyclopropyl]methanol (Ib)) [times]
CC(C)=CCC(C)/C=C(\C)CO (stereo not shown) [Compound Ia, 2,4,7-Trimethylocta-2,6-dien-1-ol]	70	more than 2 times	more than 11 times	–
CC(C)=CCCC(C)CCO (stereo not shown) [Citronellol, 3,7-dimethyloct-6-enol, reference compound]	185	–	–	–
CC(C)=CC[C@@H](C)[C@H]1C[C@]1(C)CO (relative stereo) [Compound Ic, [(1S*,2R*)-1-Methyl-2-[(R*)-5-methylhex-4-en-2-yl]cyclopropyl]methanol]	1	–	–	100
CC(C)=CC[C@H](C)[C@H]1C[C@]1(C)CO (relative stereo) [Compound Ib, [(1S*,2R*)-1-Methyl-2-[(S*)-5-methylhex-4-en-2-yl]cyclopropyl]methanol]	100	–	–	–
